Measurements from patent US20070276032A1, “Use of 8-Prenylnaringenin for Hormone Replacement Therapy” (priority 2003, published 2007).

Tested on: ERE-Luc
Assay: Estrogenic activity in the estrogen reporter mouse ERE-Luc model, luciferase activity in organs (Example 5)
Type: in vivo, mice
Conditions: male ERE-Luc mice, i.p. 30 mg/kg, six hours after the injection
Protocol: In order to avoid experimental noise male animals were used.
Fourtyfive heterozygous male ERE-Luc mice of two months of age were fed with soy-free diet for two weeks before assigning them to each experimental group then all the mice were injected intraperitoneally (i.p.) with 250 μl of an oily solution containing the following compounds: • 1. Experimental group 1: vehicle • 2. Experimental group 2: 17β-estradiol at 1.5 μg/kg • 3. Experimental group 3: 2S(−)-8-PN at 30 mg/kg • 4. […] Experimental group 5: genistein at 30 mg/kg.
The treatment was carried out in experimental groups of three mice each and repeated three times (therefore numbers reflect the average of […] determinations on a total of 9 animals).
Six hours after the injection, mice were sacrificed by cervical dislocation and organs were dissected and frozen on dry ice. The following organs were analyzed for lucifererase activity by enzymatic assay: prostate, liver, bone, brain.
Data represent means ±standard deviation of N=9 animals per group.
Analysis of variance (ANOVA) for overall comparison was followed by Tukey test for paired comparisons. All statistical procedures were carried out with Systat and SAS (*P<0.05; **P<0.01).

O=c1c(-c2ccc(O)cc2)coc2cc(O)cc(O)c12 [Genistein, genistein]
Luciferase activity, Prostate (controls 0.5): 0.7 ** arbitrary units
Luciferase activity, Bone (controls 2.8): 3.8 * arbitrary units
Luciferase activity, Brain (controls 6.5): 8.7 arbitrary units
Luciferase activity, Liver (controls 7.6): 12.2 ** arbitrary units
